The target in one assay is T1, METTL3/14 (Homo sapiens, UniProt Q86U44).
T1 construct: purchased active motif 31570
Description: METTL3/14 methyltransferase activity assay (HTRF). Type of assay: biochemical. As to conditions: 10 concentrations, 3-fold dilution from 10 µM. As for the experimental part:
The final initial concentration of the compound was 10 µM, with 3-fold serial dilution to give a total of 10 concentrations. 100 nL of the compound was transferred to a 384-well plate and centrifuged at 1000 RPM. 2.5 µL of METTL3/14 (active motif, Cat No. 31570) was added to the test wells and incubated at 25°C for 10 min. 2.5 µL of METTL3-Biotin & SAM (GenScript) was added to the test wells andincubated at 25°C for 60 min. 2.5 µL of YTHDF1 (active motif, Cat No. 31608) was added to the test wells and centrifuged at 1000 RPM. 2.5 µL of Streptavidin-Tb (Perkin Elmer Cat No. 61SATLB) & Flag-mede (Perkin Elmer Cat No. 61FG2DLA) was added to the test wells and centrifuged at 1000 RPM. Incubated at 25°C for 60 min. HTRF was measured using a Plate reader. The results of each compound are shown in Table 1, where A+indicates <10nM, A indicates 10-100nM, B indicates 100-1000nM, and C indicates >1000nM.

For a further assay, the system named is Kasumi-1 cells. Description: Kasumi-1 cell inhibitory activity (CellTiter-Glo, 5 days). Type of assay: cell-based. As to conditions: Homo sapiens, 120 h, 5 days incubation, CellTiter-Glo luminescence. As for the experimental part: Test compounds were dissolved in DMSO to prep are a 250×final concentration solution. The initial concentration was 10 µM with 3-fold dilution, resulting in a total of ten concentration points. 4 µL of the compound solution was added to 96 µL of cell culture medium to dilute it to 10×the final concentration. On the first day, Kasumi-1 cells (purchased from Precedo) were suspended in cell culture medium at the desired density, 90 µL of the cell suspension was added to a 96-well plate, and 10 µL of 10×compound solution was added for incubation, with a final DMSO concentration of 0.4% in each well. Incubated at 37 °C, 5% CO2 for 5 days. Before measurement after 5 days, the test plate was placed at room temperature, 50 µL of CellTiter-Glo® reagent (purchased from Promega, Cat. No. G7573) was added, mixed on a shaker for 2 minutes to lyse the cells, and incubated at room temperature for 10 minutes to stabilize the […] signal. Luminescence values were recorded using Paradigm, and the response-concentration curve was fitted with Graphpad Pr ism 8.0 to calculate IC50values. The results of each compound are shown in Table2, where A indicates <100nM, B indicates 100-1000nM, and C indicates >1000nM. [formula]

Each structure is given as a SMILES string. Some results are limits rather than exact numbers.

T1 sequence (Q86U44 whole entry): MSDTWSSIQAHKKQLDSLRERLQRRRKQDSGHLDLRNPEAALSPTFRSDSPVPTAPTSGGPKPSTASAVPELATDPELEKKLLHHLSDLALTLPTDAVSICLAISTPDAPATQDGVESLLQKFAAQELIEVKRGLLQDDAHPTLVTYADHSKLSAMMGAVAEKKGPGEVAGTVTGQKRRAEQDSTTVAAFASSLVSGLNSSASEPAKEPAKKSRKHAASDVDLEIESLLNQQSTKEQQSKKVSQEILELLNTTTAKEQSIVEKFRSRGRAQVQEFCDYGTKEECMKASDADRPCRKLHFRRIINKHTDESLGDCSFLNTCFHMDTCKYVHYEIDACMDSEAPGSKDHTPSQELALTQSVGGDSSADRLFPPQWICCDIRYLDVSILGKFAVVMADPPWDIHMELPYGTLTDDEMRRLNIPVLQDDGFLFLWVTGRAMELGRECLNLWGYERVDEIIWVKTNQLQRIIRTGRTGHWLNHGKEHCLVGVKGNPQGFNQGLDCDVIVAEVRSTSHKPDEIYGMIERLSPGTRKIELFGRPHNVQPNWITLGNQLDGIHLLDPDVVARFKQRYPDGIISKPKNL
T1 sequence (Q9HCE5 whole entry partner): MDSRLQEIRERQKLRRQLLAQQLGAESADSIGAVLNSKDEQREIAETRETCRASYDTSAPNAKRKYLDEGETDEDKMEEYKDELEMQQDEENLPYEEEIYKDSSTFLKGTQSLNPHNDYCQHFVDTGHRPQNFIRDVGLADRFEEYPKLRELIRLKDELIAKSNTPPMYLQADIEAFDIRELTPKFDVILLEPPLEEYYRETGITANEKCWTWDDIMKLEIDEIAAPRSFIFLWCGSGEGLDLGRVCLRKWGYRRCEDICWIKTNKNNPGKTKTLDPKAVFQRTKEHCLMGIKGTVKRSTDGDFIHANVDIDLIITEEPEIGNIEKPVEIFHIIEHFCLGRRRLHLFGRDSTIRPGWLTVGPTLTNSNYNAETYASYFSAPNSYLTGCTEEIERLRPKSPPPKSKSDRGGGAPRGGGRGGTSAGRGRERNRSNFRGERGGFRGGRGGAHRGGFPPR

With `O=C(NCc1ccc2cc(CNCC3CCC3)[nH]c2c1)c1cc(=O)n2cc3c(cc2n1)OCCO3` [Example 20, N-((2-(((Cyclobutylmethyl)amino)methyl)-1H-indol-6-yl)methyl)-9-oxo-2,3-dihydro-9H-[1,4]dioxolo[2',3':4,5]pyrido[1,2-a]pyrimidine-7-carboxamide], the IC50 (as a rule, the point on the concentration scale where inhibition reaches its midpoint) is 10 to 100 nM against METTL3/14 and 100 to 1000 nM in the assay with Kasumi-1 cells.
As for `O=C(NCc1ccc2cc(CNCC3CC(F)(F)C3)[nH]c2c1)c1cc(=O)n2cc3c(cc2n1)OCO3` [Example 26, N-((2-((((3,3-Difluorocyclobutyl)methyl)amino)methyl)-1H-indol-6-yl)methyl)-8-oxo-8H-[1,3]dioxolo[4',5':4,5]pyrido[1,2-a]pyrimidine-6-carboxamide], the results for the IC50 against METTL3/14 and in the assay with Kasumi-1 cells were 10 to 100 nM and 100 to 1000 nM, respectively.
In the same order, the values of `O=C(NCc1cc2[nH]c(CNCC3CCC3)cc2s1)c1cc(=O)n2cc3c(cc2n1)OCO3` [Example 32, N-((5-(((Cyclobutylmethyl)amino)methyl)-4H-thieno[3,2-b]pyrrol-2-yl)methyl)-8-oxo-8H-[1,3]dioxolo[4',5':4,5]pyrido[1,2-a]pyrimidine-6-carboxamide] are 10 to 100 nM and 100 to 1000 nM.
In the same order, the values of `O=C(NCc1ccc2cc(CNCC34CC(F)(C3)C4)[nH]c2c1)c1cc(=O)n2cc3c(cc2n1)OCO3` [Example 36, N-((2-((((3-Fluorobicyclo[1.1.1]pentan-1-yl)methyl)amino)methyl)-1H-indol-6-y1)methyl)-8-oxo-8H-[1,3]dioxolo[4',5':4,5]pyrido[1,2-a]pyrimidine-6-carboxamide] are less than 10 nM and less than 100 nM.
Taken in the same sequence, the figures for `O=C(NCc1ccc2cc(CNC3CCC(F)(F)C3)[nH]c2c1)c1cc(=O)n2cc3c(cc2n1)OCO3` (stereo not drawn) [Example 38, N-((2-(((3,3-Difluorocyclopentyl)amino)methyl)-1H-indol-6-yl)methyl)-8-oxo-8H-[1,3]dioxolo[4',5':4,5]pyrido[1,2-a]pyrimidine-6-carboxamide] were less than 10 nM and 100 to 1000 nM.
As for `O=C(NCc1cn2cc(CNCC3CCC3)ccc2n1)c1cc(=O)n2cc3c(cc2n1)OCO3` [Example 41, N-((6-(((cyclobutylmethyl)amino)methyl)imidazo[1,2-a]pyridin-2-yl)methyl)-8-oxo-8H-[1,3]dioxolo[4',5':4,5]pyrido[1,2-a]pyrimidine-6-carboxamide], the IC50 against METTL3/14 is less than 10 nM; in the assay on Kasumi-1 cells, 100 to 1000 nM.
Taken in the same sequence, the figures for `O=C(NCc1ccc2cc(CNCC3CCC3)[nH]c2c1)c1cn2ncc3c2c(n1)NCCO3` [Example 44, N-((2-(((Cyclobutylmethyl)amino)methyl)-1H-indol-6-yl)methyl)-7,8-dihydro-6H-9-oxa-2,2a,5,6-tetraazabenzo[cd]azulene-4-carboxamide] were 10 to 100 nM and 100 to 1000 nM.
Take `O=C(NCc1ccc2cc(CNCC3CCC3)[nH]c2c1)c1cn2ncc3c2c(n1)NCCC3` [Example 45, N-((2-(((Cyclobutylmethyl)amino)methyl)-1H-indol-6-yl)methyl)-6,7,8,9-tetrahydro-2,2a,5,6-tetraazabenzo[cd]azulene-4-carboxamide]: the IC50 against METTL3/14 lay in the range of 10 to 100 nM; in the assay on Kasumi-1 cells it was 100 to 1000 nM.
Taken in the same sequence, the figures for `O=C(NCc1ccc2cc(CNCC34CC(F)(C3)C4)[nH]c2c1)c1cc(=O)n2cc3c(cc2n1)OCCO3` [Example 46, N-((2-((((3-Fluorobicyclo[1.1.1]pentan-1-yl)methyl)amino)methyl)-1H-indol-6-yl)methyl)-9-oxo-2,3-dihydro-9H-[1,4]dioxolo[2',3':4,5]pyrido[1,2-a]pyrimidine-7-carboxamide] were less than 10 nM and less than 100 nM.
In the same order, the values of `CC1(CNCc2cc3ccc(CNC(=O)c4cc(=O)n5cc6c(cc5n4)OCO6)cc3[nH]2)CCC1` [Example 51, N-((2-((((1-Methylcyclobutyl)methyl)amino)methyl)-1H-indol-6-yl)methyl)-8-oxo-8H-[1,3]dioxolo[4',5':4,5]pyrido[1,2-a]pyrimidine-6-carboxamide] are less than 10 nM and 100 to 1000 nM.
Consider `CC1(CNCc2cc3ccc(CNC(=O)c4cc(=O)n5cc6c(cc5n4)OCCO6)cc3[nH]2)CCC1` [Example 52, N-((2-((((1-Methylcyclobutyl)methyl)amino)methyl)-1H-indol-6-yl)methyl)-9-oxo-2,3-dihydro-9H-[1,4]dioxino[2',3':4,5]pyrido[1,2-a]pyrimidine-7-carboxamide], for which the IC50 on METTL3/14 was less than 10 nM; with Kasumi-1 cells, 100 to 1000 nM.
As to `CC1(CNCc2cc3ccc(CNC(=O)c4cc(=O)n5cc6c(cc5n4)OCO6)cc3[nH]2)CC(F)(F)C1` [Example 53, N-((2-((((3,3-Difluoro-1-methylcyclobutyl)methyl)amino)methyl)-1H-indol-6-yl)methyl)-8-oxo-8H-[1,3]dioxolo[4',5':4,5]pyrido[1,2-a]pyrimidine-6-carboxamide], the IC50 on METTL3/14 is less than 10 nM; in the assay on Kasumi-1 cells, 100 to 1000 nM.
`O=C(NCc1cc2[nH]c(CNCC34CC(F)(C3)C4)cc2cc1F)c1cc(=O)n2cc3c(cc2n1)OCO3` [Example 74, N-((5-fluoro-2-((((3-fluorobicyclo[1.1.1]pentan-1-yl)methyl)amino)methyl)-1H-indol-6-yl)methyl)-8-oxo-8H-[1,3]dioxolo[4',5':4,5]pyrido[1,2-a]pyrimidine-6-carboxamide] had an IC50 against METTL3/14 of less than 10 nM.
Still for that read-out and setting: with `O=C(NCc1c(F)cc2cc(CNCC3CCC3)[nH]c2c1F)c1cc(=O)n2cc3c(cc2n1)OCO3` [Example 75, N-((2-(((Cyclobutylmethyl)amino)methyl)-5,7-difluoro-1H-indol-6-yl)methyl)-8-oxo-8H-[1,3]dioxolo[4',5':4,5]pyrido[1,2-a]pyrimidine-6-carboxamide] the figure was 10 to 100 nM; with `O=C(NCc1ccc2cc(CNCc3ccc(F)s3)[nH]c2c1)c1cc(=O)n2cc3c(cc2n1)OCCO3` [Example 76, N-((2-((((5-fluorothiophen-2-yl)methyl)amino)methyl)-1H-indol-6-yl)methyl)-9-oxo-2,3-dihydro-9H-[1,4]dioxino[2',3':4,5]pyrido[1,2-a]pyrimidin-7-carboxamide], 10 to 100 nM; with `O=C(NCc1ccc2cc(CNC[C@H]3CCCO3)[nH]c2c1)c1cc(=O)n2cc3c(cc2n1)OCCO3` [Example 78, (R)-9-Oxo-N-((2-((((tetrahydrofuran-2-yl)methyl)amino)methyl)-1H-indol-6-yl)methyl)-2,3-dihydro-9H-[1,4]dioxino[2',3':4,5]pyrido[1,2-a]pyrimidine-7-carboxamide], 10 to 100 nM.
On the same count and under the same terms, with `O=C(NCc1ccc2cc(CNC[C@@H]3CCO3)[nH]c2c1)c1cc(=O)n2cc3c(cc2n1)OCCO3` [Example 79, (S)-N-((2-(((oxetan-2-ylmethyl)amino)methyl)-1H-indol-6-yl)methyl)-9-oxo-2,3-dihydro-9H-[1,4]dioxolo[2',3':4,5]pyrido[1,2-a]pyrimidine-7-carboxamide] the figure was 10 to 100 nM; with `COC1(CNCc2cc3ccc(CNC(=O)c4cc(=O)n5cc6c(cc5n4)OCCO6)cc3[nH]2)CCC1` [Example 80, N-((2-((((1-Methoxycyclobutyl)methyl)amino)methyl)-1H-indol-6-yl)methyl)-9-oxo-2,3-dihydro-9H-[1,4]dioxino[2',3':4,5]pyrido[1,2-a]pyrimidine-7-carboxamide], 10 to 100 nM; with `O=C(NCc1ccc2cc(CN3CCOC4(CCC4)C3)[nH]c2c1)c1cc(=O)n2cc3c(cc2n1)OCCO3` [Example 81, N-((2-((5-oxa-8-azaspiro[3.5]nonan-8-yl)methyl)-1H-indol-6-yl)methyl)-9-oxo-2,3-dihydro-9H-[1,4]dioxino[2',3':4,5]pyrido[1,2-a]pyrimidine-7-carboxamide], 100 to 1000 nM.
Consider `O=C(NCc1ccc2cc(CNCc3ccc(F)s3)[nH]c2c1)c1cc(=O)n2cc3c(cc2n1)OCO3` [Example 82, N-((2-((((5-Fluorothiophen-2-yl)methyl)amino)methyl)-1H-indol-6-yl)methyl)-8-oxo-8H-[1,3]dioxolo[2',3':4,5]pyrido[1,2-a]pyrimidine-6-carboxamide], for which, on METTL3/14, the 50% inhibitory concentration (IC50) lay in the range of 10 to 100 nM.
Same read-out and setting: with `COC1(CNCc2cc3ccc(CNC(=O)c4cc(=O)n5cc6c(cc5n4)OCO6)cc3[nH]2)CCC1` [Example 83, N-((2-((((1-Methoxycyclobutyl)methyl)amino)methyl)-1H-indol-6-yl)methyl)-8-oxo-8H-[1,3]dioxolo[2',3':4,5]pyrido[1,2-a]pyrimidine-6-carboxamide] the figure was less than 10 nM.

The record behind these values is EP4800016A1, “METTL3 INHIBITOR” (Hangzhou Bangshun Pharmaceutical Co., Ltd., priority 2023, dated 2025).
